# Assay results reported in patent US7932277B2, “Peptide inhibitors of hepatitis C virus replication” (InterMune, Inc., priority 2007, dated 2011).
# Where two headings read alike, the source gives them in different places.
# Assays:
# [1] = target: T1, NS3/NS4A-2 (full-length HCV NS3 protease complexed with NS4A-2) (Hepatitis C virus genotype 1a, UniProt P27958); experiment: NS3 inhibition assay (NS3-NS4 protease assay); assay type: biochemical
# T1 construct: Recombinant E. coli or Baculovirus full-length NS3; host or cells: E. coli or baculovirus (insect cells)
# T1 sequence (P27958 1027-1657, one chain of several): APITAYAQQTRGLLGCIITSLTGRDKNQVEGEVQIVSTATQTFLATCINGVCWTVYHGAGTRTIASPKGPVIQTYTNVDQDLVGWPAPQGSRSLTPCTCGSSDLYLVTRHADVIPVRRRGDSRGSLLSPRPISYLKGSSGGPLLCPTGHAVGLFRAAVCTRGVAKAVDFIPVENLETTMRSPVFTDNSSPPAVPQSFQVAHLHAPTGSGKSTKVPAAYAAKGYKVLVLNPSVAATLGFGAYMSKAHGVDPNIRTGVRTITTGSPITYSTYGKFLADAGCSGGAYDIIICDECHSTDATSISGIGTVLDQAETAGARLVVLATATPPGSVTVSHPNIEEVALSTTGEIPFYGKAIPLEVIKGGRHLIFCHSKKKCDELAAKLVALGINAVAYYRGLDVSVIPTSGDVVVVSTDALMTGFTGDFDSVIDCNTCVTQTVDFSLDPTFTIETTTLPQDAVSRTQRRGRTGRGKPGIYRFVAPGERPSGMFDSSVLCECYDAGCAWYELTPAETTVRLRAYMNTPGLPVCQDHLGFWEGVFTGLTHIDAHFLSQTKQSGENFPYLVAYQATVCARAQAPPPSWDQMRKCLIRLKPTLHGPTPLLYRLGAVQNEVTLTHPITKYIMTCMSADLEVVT
# Summary of the method: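 Full-length NS3 (E. coli-expressed at 2 nM or baculovirus-expressed at 3 nM) precomplexed with excess NS4A-2 peptide and preincubated with compound (top concentration 50 μM) for 10 min at room temperature. RETS1 substrate added; fluorescence read kinetically for 30 min (ex 335/em 495 nm). IC50 converted to Ki using Km 2.03 μM (E. coli) or 1.74 μM (baculovirus).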
# [2] = test system: HCV sub-genomic replicon (1377/NS3-3') in HuH-7 hepatoma cells (GS4.3); experiment: Quantitation by ELISA of NPTII in the HCV sub-genomic replicon, GS4.3; assay type: cell-based, hepatitis C virus (HCV); conditions: GS4.3 cells, 72 h incubation, NPTII ELISA, read-out: Replicon EC50
# Summary of the method: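 GS4.3 cells (HuH-7 carrying HCV 1377/NS3-3′ replicon) treated 72 h at 37 °C with compound at 3-fold dilutions from 10 μM to 56 pM final, 1% DMSO, without G418. NPTII in lysates quantified by ELISA (450 nm). Signal expressed as percent of DMSO control; EC50 by 4-parameter fit.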
# [3] = recombinant full-length NS3/NS4A-2, RETS1 substrate, kinetic fluorescence read, read-out: NS3-NS4 IC50
Molecule,"IC50 [1, 3] [nM]","EC50 ([2]; Hepatitis C virus, Huh-7) [nM]",EC50 [2] [nM],IC50 [1] [nM]
CC[C@@H]1C[C@]1(NC(=O)[C@@H]1C[C@@H](OC(=O)N2Cc3cccc(Cl)c3C2)CN1C(=O)[C@@H](Nc1cccc(C(F)(F)F)c1)C(C)(C)C)C(=O)NOCC1CC1 [Compound 72],100 to 1000,100 to 1000,,
"[(3R,5S)-5-(((1R,2R)-1-(Cyclopropylsulfonylcarbamoyl)-2-ethylcyclopropyl)carbamoyl)-1-((S)-2-(5-ethylthiazol-2-ylamino)-3,3-dimethylbutanoyl)pyrrolidin-3-yl]4-chloroisoindoline-2-carboxylate [Compound 66]",< 100,,< 100,
CC[C@@H]1C[C@]1(NC(=O)[C@@H]1C[C@@H](Oc2nc3ccccc3s2)CN1C(=O)[C@@H](Nc1cncc(C(F)(F)F)c1)C(C)(C)C)C(=O)NS(=O)(=O)C1CC1 [Compound 70],< 100,< 100,,
"C=C[C@@H]1C[C@]1(NC(=O)[C@@H]1C[C@@H](OC(=O)N2Cc3cccc(Cl)c3C2)CN1C(=O)[C@@H](Nc1nc(-c2ccc(F)nc2)cs1)C1CCCCC1)C(=O)NS(=O)(=O)C1CC1 [Compound 61, [(3R,5S)-5-(((1R,2S)-1-(cyclopropylsulfonylcarbamoyl)-2-vinylcyclopropyl)carbamoyl)-1-((S)-2-cyclohexyl-2-(4-(6-fluoropyridin-3-yl)thiazol-2-ylamino)acetyl)pyrrolidin-3-yl]-4-chloroisoindoline-2-carboxylate]",< 100,< 100,,
"CC(C)(C)[C@H](Nc1cccc(C(F)(F)F)c1)C(=O)N1C[C@H](OC(=O)N2Cc3cccc(Cl)c3C2)C[C@H]1C(=O)N[C@]1(C(=O)NS(=O)(=O)C2CC2)C[C@H]1C1CC1 [Compound 60, [(3R,5S)-5-((1R,2S)-1-(cyclopropylsulfonylcarbamoyl)-2-cyclopropylcyclopropylcarbamoyl)-1-((S)-3,3-dimethyl-2-(3-(trifluoromethyl)phenylamino)-butanoyl)pyrrolidin-3-yl]4-chloroisoindoline-2-carboxylate]",< 100,< 100,,
"CC[C@@H]1C[C@]1(NC(=O)[C@@H]1C[C@@H](OC(=O)N2Cc3cccc(F)c3C2)CN1C(=O)[C@@H](Nc1cccc(C#N)c1)C(C)C)C(=O)NS(=O)(=O)C1CC1 [Compound 51, [(3R,5S)-1-((S)-2-(3-cyanophenylamino)-3-methylbutanoyl)-5-((1R,2R)-1-(cyclopropylsulfonylcarbamoyl)-2-ethylcyclopropylcarbamoyl)pyrrolidin-3-yl]4-fluoroisoindoline-2-carboxylate]",< 100,100 to 1000,,
"CC[C@@H]1C[C@]1(NC(=O)[C@@H]1C[C@@H](OC(=O)N2Cc3cccc(F)c3C2)CN1C(=O)[C@@H](Nc1cncc(C(F)(F)F)c1)C(C)C)C(=O)NS(=O)(=O)C1CC1 [Compound 48, [(3R,5S)-5-((1R,2R)-1-(cyclopropylsulfonylcarbamoyl)-2-ethylcyclopropylcarbamoyl)-1-((S)-3-methyl-2-(5-(trifluoromethyl)pyridin-3-ylamino)butanoyl)pyrrolidin-3-yl]4-fluoroisoindoline-2-carboxylate]",< 100,100 to 1000,,
CC[C@@H]1C[C@]1(NC(=O)[C@@H]1C[C@@H](Oc2nc3ccccc3s2)CN1C(=O)[C@@H](Nc1cccc(C(F)(F)F)c1)C(C)(C)C)C(=O)NS(=O)(=O)C1CC1 [Compound 69],< 100,< 100,,
"CC[C@@H]1C[C@]1(NC(=O)[C@@H]1C[C@@H](OC(=O)N2Cc3cccc(F)c3C2)CN1C(=O)[C@@H](Nc1cccc(Cl)c1)C(C)C)C(=O)NS(=O)(=O)C1CC1 [Compound 50, [(3R,5S)-1-((S)-2-(3-chlorophenylamino)-3-methylbutanoyl)-5-((1R,2R)-1-(cyclopropylsulfonylcarbamoyl)-2-ethylcyclopropylcarbamoyl)pyrrolidin-3-yl]4-fluoroisoindoline-2-carboxylate]",< 100,< 100,,
"CC[C@@H]1C[C@]1(NC(=O)[C@@H]1C[C@@H](OC(=O)N2Cc3cccc(F)c3C2)CN1C(=O)[C@@H](Nc1ccc(F)c(C(F)(F)F)c1)C(C)C)C(=O)NS(=O)(=O)C1CC1 [Compound 52, [(3R,5S)-5-((1R,2R)-1-(cyclopropylsulfonylcarbamoyl)-2-ethylcyclopropylcarbamoyl)-1-((S)-2-(4-fluoro-3-(trifluoromethyl)phenylamino)-3-methylbutanoyl)pyrrolidin-3-yl]4-fluoroisoindoline-2-carboxylate]",< 100,< 100,,
"C=C[C@@H]1C[C@]1(NC(=O)[C@@H]1C[C@@H](OC(=O)N2Cc3cccc(F)c3C2)CN1C(=O)[C@@H](Nc1cccc(C(C)(C)C)c1)C(C)C)C(=O)NS(=O)(=O)C1CC1 [Compound 40, [(3R,5S)-1-((S)-2-(3-tert-butylphenylamino)-3-methylbutanoyl)-5-((1R,2S)-1-(cyclopropylsulfonylcarbamoyl)-2-vinylcyclopropylcarbamoyl)pyrrolidin-3-yl]4-fluoroisoindoline-2-carboxylate]",< 100,< 100,,
"[(3R,5S)-5-(((1R,2R)-1-(Cyclopropylsulfonylcarbamoyl)-2-ethylcyclopropyl)carbamoyl)-1-((S)-2-cyclohexyl-2-(5-ethylthiazol-2-ylamino)acetyl)pyrrolidin-3-yl]4-chloroisoindoline-2-carboxylate [Compound 64]",< 100,,< 100,
"CC[C@@H]1C[C@]1(NC(=O)[C@@H]1C[C@@H](OC(=O)N2Cc3cccc(Cl)c3C2)CN1C(=O)[C@@H](Nc1cncc(C(F)(F)F)c1)C(C)(C)C)C(=O)NS(=O)(=O)C1CC1 [Compound 58, [(3R,5S)-5-((1R,2R)-1-(cyclopropylsulfonylcarbamoyl)-2-ethylcyclopropylcarbamoyl)-1-((S)-3,3-dimethyl-2-(5-(trifluoromethyl)pyridin-3-ylamino)butanoyl)pyrrolidin-3-yl]4-chloroisoindoline-2-carboxylate]",< 100,< 100,,
"C=C[C@@H]1C[C@]1(NC(=O)[C@@H]1C[C@@H](OC(=O)N2Cc3cccc(F)c3C2)CN1C(=O)[C@@H](Nc1ccc(Br)cc1)C(C)C)C(=O)NS(=O)(=O)C1CC1 [Compound 36, [(3R,5S)-5-((1R,2S)-1-(cyclopropylsulfonylcarbamoyl)-2-vinylcyclopropylcarbamoyl)-1-((S)-2-(4-bromophenylamino)-3-methylbutanoyl)pyrrolidin-3-yl]4-fluoroisoindoline-2-carboxylate]",< 100,100 to 1000,,
"C=C[C@@H]1C[C@]1(NC(=O)[C@@H]1C[C@@H](OC(=O)N2Cc3cccc(F)c3C2)CN1C(=O)[C@@H](Nc1ccc(F)cc1)C(C)C)C(=O)NS(=O)(=O)C1CC1 [Compound 33, (3R,5S)-5-((1R,2S)-1-(cyclopropylsulfonylcarbamoyl)-2-vinylcyclopropylcarbamoyl)-1-((S)-2-(4-fluorophenylamino)-3-methylbutanoyl)pyrrolidin-3-yl 4-fluoroisoindoline-2-carboxylate]",< 100,100 to 1000,,
"[(3R,5S)-5-(((1R,2R)-1-(Cyclopropylsulfonylcarbamoyl)-2-ethylcyclopropyl)carbamoyl)-1-((S)-2-(5-isopropylthiazol-2-ylamino)-3-methylbutanoyl)pyrrolidin-3-yl]4-chloroisoindoline-2-carboxylate [Compound 67]",< 100,,< 100,
"CC[C@@H]1C[C@]1(NC(=O)[C@@H]1C[C@@H](OC(=O)N2Cc3cccc(F)c3C2)CN1C(=O)[C@@H](Nc1cccc(C(C)(C)C)c1)C(C)C)C(=O)NS(=O)(=O)C1CC1 [Compound 45, [(3R,5S)-1-((S)-2-(3-tert-butylphenylamino)-3-methylbutanoyl)-5-((1R,2R)-1-(cyclopropylsulfonylcarbamoyl)-2-ethylcyclopropylcarbamoyl)pyrrolidin-3-yl]4-fluoroisoindoline-2-carboxylate]",< 100,< 100,,
"C=C[C@@H]1C[C@]1(NC(=O)C1Cc2cc(Oc3cccc(Cl)c3)ccc2CN1C(=O)[C@@H](Nc1cccc(C(C)(C)C)c1)C(C)C)C(=O)NS(=O)(=O)C1CC1 (stereo partly drawn) [Compound 13, 2-((S)-2-(3-tert-butylphenylamino)-3-methylbutanoyl)-6-(3-chlorophenoxy)-N-((1R,2S)-1-(cyclopropylsulfonylcarbamoyl)-2-vinylcyclopropyl)-1,2,3,4-tetrahydroisoquinoline-3-carboxamide]",< 100,10000 to 50000,,
"[(3R,5S)-5-((1R,2R)-1-(cyclopropylsulfonylcarbamoyl)-2-ethylcyclopropylcarbamoyl)-1-((S)-3,3-dimethyl-2-(3-(trifluoromethyl)phenylamino)butanoyl)pyrrolidin-3-yl]4-chloroisoindoline-2-carboxylate [Compound 55]",< 100,,< 100,
CC[C@@H]1C[C@]1(NC(=O)[C@@H]1C[C@@H](OC(=O)N2Cc3cccc(Cl)c3C2)CN1C(=O)[C@@H](Nc1cccc(C(F)(F)F)c1)C(C)(C)C)C(=O)NS(=O)(=O)C1(C)CC1 [Compound 81],,< 100,,< 100
